Measured values: US11116767B2, “3,5-disubstituted pyrazoles useful as checkpoint kinase 1 (Chk1) inhibitors, and their preparations and applications” (PHARMAENGINE, INC., priority 2016, dated 2021)
Where two headings read alike, the source gives them in different places.

Tests used:
Chk1 = target: T1, Chk1 (Homo sapiens, UniProt O14757); assay: biochemical; conditions: ADP-Glo; read-out: Chk1 in vitro enzyme activity (grade)
T1 construct: purchased BPS 40039
T1 sequence (O14757 1-476): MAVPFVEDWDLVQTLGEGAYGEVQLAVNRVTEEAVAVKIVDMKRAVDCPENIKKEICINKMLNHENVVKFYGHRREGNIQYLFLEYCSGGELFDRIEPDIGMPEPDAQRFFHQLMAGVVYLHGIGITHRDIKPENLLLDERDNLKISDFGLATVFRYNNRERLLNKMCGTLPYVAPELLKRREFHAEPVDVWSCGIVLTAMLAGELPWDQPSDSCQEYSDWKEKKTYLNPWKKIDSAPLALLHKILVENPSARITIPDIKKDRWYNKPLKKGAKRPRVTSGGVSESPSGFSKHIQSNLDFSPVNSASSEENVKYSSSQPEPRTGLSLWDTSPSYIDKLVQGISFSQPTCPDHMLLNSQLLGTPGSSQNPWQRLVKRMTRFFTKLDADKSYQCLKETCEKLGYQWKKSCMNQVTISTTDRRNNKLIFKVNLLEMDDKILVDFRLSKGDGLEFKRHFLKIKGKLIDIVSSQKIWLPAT

HT-29 = assay: Cancer cell growth inhibition assay (CellTiter-Glo), HT-29; assay type: cell-based, Human; conditions: Homo sapiens, HT-29; 72 hours, cellular ATP content; read-out: HT-29 anti cell proliferation activity (grade)
Procedure: (§1) Human cancer cell lines were purchased from American Type Culture Collection (Manassas, Va.). The trypsinized cells were diluted to required volume at densities of 44,000 cells/ml. 90 ul cell slurry was dispensed per well in 96-well flat-bottomed plates with the recommended culture medium. The cells were incubated for 24 hours at 37° C. in 5% CO2 under humidified condition. The cells were then incubated with compounds at various concentrations for 72 hours in culture medium supplemented with 0.5% (v/v) FBS. Growth inhibition was assessed by assay of cellular ATP content using CellTiter-Glo reagent to each well. Luminesce was read on Envision. The inhibition rate (%)=(Max signal compound signal)/(Max signal Min signal)×100.

MDA-MB-231 = assay: Cancer cell growth inhibition assay (CellTiter-Glo), MDA-MB-231; assay type: cell-based, Human; conditions: Homo sapiens, MDA-MB-231; 72 hours, cellular ATP content; read-out: MDA-MB-231 anti cell proliferation activity (grade)
Procedure: as §1

Chk2 = target: T2, Chk2 (Homo sapiens, UniProt O96017); assay: biochemical; conditions: ADP-Glo; read-out: Chk2 in vitro enzyme activity (grade)
T2 construct: purchased Carna 02-162

[1] = Pharmacokinetics study in rats, intravenous; assay type: in vivo, SD rats; conditions: rat, IV; for AUC(0-inf) / AUC(0-t) / clearance / MRT / half-life / Vd: male, SD, plasma, 10 mg/kg; for AUC(0-inf): read-out: AUC0-inf; for AUC(0-t): read-out: AUC0-t; for clearance: read-out: CL (converted); for MRT: read-out: MRT; for half-life: read-out: t½ (converted); for Vd: iv; for half-life and exposure compared with LY2606368: 10 mg/kg (LY2606368 5 mg/kg)
Procedure: Compounds were formulated in 30% SEB-β-CD (Zhiyuan Bio-technology) with 1 molar equivalents of HCl (pH adjusted to 3-5). Male SD rats (280-350 g) were purchased from Medical Laboratory Animal Center of Guangdong. Three rats were used for each PK study. […] At various time points after compound administration, approximately 0.2˜0.3 mL of blood was collected by cutting the end of tail into tubes containing K2-EDTA. The plasma was separated via centrifugation and stored at −80° C. A PE Sciex API-3000 LC-MS/MS system (Applied Biosystems, Inc.) was used to analyze compound concentrations in plasma.
PK studies of ChK1 inhibitors were conducted in rats after intravenous administration at 10 mg/kg. […]. […]

[2] = Human liver S9 metabolic stability; assay type: in vitro ADME; conditions: for Percentage Remaining %: 1 μM, 37° C.; for metabolic stability compared with LY2606368: human liver S9; for half-life at 1 μM: human liver S9, 1 μM
Procedure: Compounds (1 μM) were incubated with human liver S9 (from BD Gentest) at final liver microsomal protein concentration of 0.5 mg/mL for 0, 5, 15, 30, 45 min at 37° C. The remaining compounds in the reaction were measured by LC-MS/MS. The half-life (T½) 0.693/K (K is the rate constant from a plot of ln [concentration] vs. incubation time).

T2 sequence (O96017 whole entry): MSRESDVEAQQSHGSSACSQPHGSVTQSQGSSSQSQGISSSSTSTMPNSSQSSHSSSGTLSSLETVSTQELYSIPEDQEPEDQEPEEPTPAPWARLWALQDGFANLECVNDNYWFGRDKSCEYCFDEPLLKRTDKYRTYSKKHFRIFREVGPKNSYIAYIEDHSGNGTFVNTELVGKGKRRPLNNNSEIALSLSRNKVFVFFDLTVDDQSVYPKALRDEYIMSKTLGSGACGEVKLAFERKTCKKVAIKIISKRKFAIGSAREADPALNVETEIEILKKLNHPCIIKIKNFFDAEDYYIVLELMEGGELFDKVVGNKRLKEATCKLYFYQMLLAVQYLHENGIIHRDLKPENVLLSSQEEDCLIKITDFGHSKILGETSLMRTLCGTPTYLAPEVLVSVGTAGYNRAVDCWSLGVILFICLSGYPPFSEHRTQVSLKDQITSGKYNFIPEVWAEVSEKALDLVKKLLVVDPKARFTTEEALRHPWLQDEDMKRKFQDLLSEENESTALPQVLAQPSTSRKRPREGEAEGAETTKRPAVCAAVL

Row | IC50 (Chk1) | IC50 (HT-29) | melting point | IC50 (MDA-MB-231) | IC50 (Chk2) | SMILES | also measured
1 | ≤ 1 nM | 100 to 500 nM | 80 to 84 °C | 100 to 500 nM |  | COc1c(F)ccc(OCCCN)c1-c1cc(Nc2cnc(C#N)cn2)n[nH]1 [Compound 2, 5-((5-(6-(3-aminopropoxy)-3-fluoro-2-methoxyphenyl)-1H-pyrazol-3-yl)amino)pyrazine-2-carbonitrile] | 
2 | ≤ 1 nM | ≤ 10 nM | 228 to 230 °C | 10 to 50 nM |  | CNCC1(COc2cc(F)cc(OC)c2-c2cc(Nc3cnc(C#N)cn3)n[nH]2)CC1 [Compound 20, 5-(5-(4-Fluoro-2-methoxy-6-((1-((methylamino)methyl)cyclopropyl)methoxy)phenyl)-1H-pyrazol-3-ylamino)pyrazine-2-carbonitrile] | 
3 | 10 to 50 nM |  |  |  |  | CCOC(=O)NCCCOc1cc(F)cc(OC)c1-c1cc(Nc2cnc(C#N)cn2)n[nH]1 [Compound 38, Ethyl 3-(2-(3-(5-cyanopyrazin-2-ylamino)-1H-pyrazol-5-yl)-5-fluoro-3-methoxyphenoxy)propylcarbamate] | 
4 | ≤ 1 nM | ≤ 10 nM | 165 to 170 °C | 10 to 50 nM | 10 to 50 nM | COc1cc(C)cc(OCC2(CN)CC2)c1-c1cc(Nc2cnc(C#N)cn2)n[nH]1 [Compound 16, 5-(5-(2-((1-(Aminomethyl)cyclopropyl)methoxy)-6-methoxy-4-methylphenyl)-1H-pyrazol-3-ylamino)pyrazine-2-carbonitrile] | 
5 | 1 to 10 nM | 10 to 50 nM | 145 to 151 °C | 10 to 50 nM | 10 to 50 nM | COc1cc(OC)c(-c2cc(Nc3cnc(C#N)cn3)n[nH]2)c(OCCCN)c1 [Compound 7, 5-(5-(2-(3-Aminopropoxy)-4,6-dimethoxyphenyl)-1H-pyrazol-3-ylamino)pyrazine-2-carbonitrile] | 
6 | 1 to 10 nM | 100 to 500 nM | 221 to 224 °C | 100 to 500 nM |  | COc1ccc(F)c(OCCCN)c1-c1cc(Nc2cnc(C#N)cn2)n[nH]1 [Compound 1, 5-(5-(2-(3-Aminopropoxy)-3-fluoro-6-methoxyphenyl)-1H-pyrazol-3-ylamino)pyrazine-2-carbonitrile] | 
7 | ≤ 1 nM | 10 to 50 nM | 188 to 191 °C | 10 to 50 nM | 50 to 100 nM | COc1cc(C)cc(OCCCN)c1-c1cc(Nc2cnc(C#N)cn2)n[nH]1 [Compound 6, 5-(5-(2-(3-aminopropoxy)-6-methoxy-4-methylphenyl)-1H-pyrazol-3-ylamino)pyrazine-2-carbonitrile] | 
8 | 1 to 10 nM |  | 213 to 215 °C |  |  | CNCC1(COc2c(F)ccc(OC)c2-c2cc(Nc3cnc(C#N)cn3)n[nH]2)CC1 [Compound 18, 5-(5-(3-fluoro-6-methoxy-2-((1-((methylamino)methyl)cyclopropyl)methoxy)phenyl)-1H-pyrazol-3-ylamino)pyrazine-2-carbonitrile] | 
9 | ≤ 1 nM | 10 to 50 nM | 232 to 236 °C | 10 to 50 nM | 10 to 50 nM | COc1cc(Cl)cc(OCC2(CN)CC2)c1-c1cc(Nc2cnc(C#N)cn2)n[nH]1 [Compound 14, 5-(5-(2-((1-(Aminomethyl)cyclopropyl)methoxy)-4-chloro-6-methoxyphenyl)-1H-pyrazol-3-ylamino)pyrazine-2-carbonitrile] | AUC(0-inf) [1]: 3120 ng·h/mL; AUC(0-t) [1]: 3100 ng·h/mL; clearance [1]: 56.7 mL/min/kg; MRT [1]: 4.1 h; half-life [1]: 4 h; Vd ([1]; read-out: Vd): 19.2 L/kg; Vd ([1]; read-out: Vss): 13.9 L/kg; half-life and exposure compared with LY2606368 [1]: longer half-life and higher exposure than LY2606368
10 | ≤ 1 nM | 10 to 50 nM | 165 to 175 °C | 50 to 100 nM | 50 to 100 nM | COc1cc(Br)cc(OCCCN)c1-c1cc(Nc2cnc(C#N)cn2)n[nH]1 [Compound 5, 5-(5-(2-(3-Aminopropoxy)-4-bromo-6-methoxyphenyl)-1H-pyrazol-3-ylamino)pyrazine-2-carbonitrile] | AUC(0-inf) [1]: 2990 ng·h/mL; AUC(0-t) [1]: 2960 ng·h/mL; clearance [1]: 60 mL/min/kg; MRT [1]: 2.8 h; half-life [1]: 5.3 h; Vd ([1]; read-out: Vd): 29.5 L/kg; Vd ([1]; read-out: Vss): 10.2 L/kg; half-life and exposure compared with LY2606368 [1]: longer half-life and higher exposure than LY2606368
11 | 1 to 10 nM | 50 to 100 nM | 215 to 219 °C | 100 to 500 nM |  | CNCC1(COc2ccc(F)c(OC)c2-c2cc(Nc3cnc(C#N)cn3)n[nH]2)CC1 [Compound 19, 5-((5-(3-fluoro-2-methoxy-6-((1-((methylamino)methyl)cyclopropyl)methoxy)phenyl)-1H-pyrazol-3-yl)amino)pyrazine-2-carbonitrile] | 
12 | ≤ 1 nM | ≤ 10 nM | 202 to 206 °C | 10 to 50 nM | 10 to 50 nM | COc1cc(F)cc(OCC2(CN)CC2)c1-c1cc(Nc2cnc(C#N)cn2)n[nH]1 [Compound 13, 5-(5-(2-((1-(Aminomethyl)cyclopropyl)methoxy)-4-fluoro-6-methoxyphenyl)-1H-pyrazol-3-ylamino)pyrazine-2-carbonitrile] | Percentage Remaining % ([2]; 0 min): 100.00%; Percentage Remaining % ([2]; 5 min): 98.69%; Percentage Remaining % ([2]; 15 min): 99.08%; Percentage Remaining % ([2]; 30 min): 96.23%; Percentage Remaining % ([2]; 45 min): 100.18%; metabolic stability compared with LY2606368 [2]: more metabolic stable than LY2606368; half-life at 1 μM [2]: 5 h
13 | 1 to 10 nM | ≤ 10 nM | 160 to 164 °C | 10 to 50 nM | 10 to 50 nM | COc1cc(OC)c(-c2cc(Nc3cnc(C#N)cn3)n[nH]2)c(OCC2(CN)CC2)c1 [Compound 17, 5-(5-(2-((1-(Aminomethyl)cyclopropyl)methoxy)-4,6-dimethoxyphenyl)-1H-pyrazol-3-ylamino)pyrazine-2-carbonitrile] | 
14 | ≤ 1 nM | 10 to 50 nM |  | 10 to 50 nM | 10 to 50 nM | COc1cc(Br)cc(OCC2(CN)CC2)c1-c1cc(Nc2cnc(C#N)cn2)n[nH]1 [Compound 15, 5-(5-(2-((1-(Aminomethyl)cyclopropyl)methoxy)-4-bromo-6-methoxyphenyl)-1H-pyrazol-3-ylamino)pyrazine-2-carbonitrile] | Percentage Remaining % ([2]; 0 min): 100.00%; Percentage Remaining % ([2]; 5 min): 94.64%; Percentage Remaining % ([2]; 15 min): 93.89%; Percentage Remaining % ([2]; 30 min): 93.30%; Percentage Remaining % ([2]; 45 min): 87.68%; metabolic stability compared with LY2606368 [2]: more metabolic stable than LY2606368; half-life at 1 μM [2]: 7.99 h; AUC(0-inf) [1]: 4980 ng·h/mL; AUC(0-t) [1]: 4890 ng·h/mL; clearance [1]: 63.3 mL/min/kg; MRT [1]: 3.8 h; half-life [1]: 7.4 h; Vd ([1]; read-out: Vd): 46.9 L/kg; Vd ([1]; read-out: Vss): 19.2 L/kg; half-life and exposure compared with LY2606368 [1]: longer half-life and higher exposure than LY2606368
